The text below walks through data of ChEMBL document CHEMBL5523718, “Design, synthesis, molecular modeling, in vitro and in vivo biological evaluation of potent anthranilamide derivatives as dual P-glycoprotein and CYP3A4 inhibitors” (Eur J Med Chem, 2024).

The target in series [1] is T1, P-gp (ABCB1) (Homo sapiens, UniProt P08183). Briefly: Inhibition of P-gp in human Caco-2 cells at 5 uM in presence of paclitaxel relative to control. The settings on record: Caco-2, probe paclitaxel. It counts as cell-based.
T1 sequence (P08183 whole entry): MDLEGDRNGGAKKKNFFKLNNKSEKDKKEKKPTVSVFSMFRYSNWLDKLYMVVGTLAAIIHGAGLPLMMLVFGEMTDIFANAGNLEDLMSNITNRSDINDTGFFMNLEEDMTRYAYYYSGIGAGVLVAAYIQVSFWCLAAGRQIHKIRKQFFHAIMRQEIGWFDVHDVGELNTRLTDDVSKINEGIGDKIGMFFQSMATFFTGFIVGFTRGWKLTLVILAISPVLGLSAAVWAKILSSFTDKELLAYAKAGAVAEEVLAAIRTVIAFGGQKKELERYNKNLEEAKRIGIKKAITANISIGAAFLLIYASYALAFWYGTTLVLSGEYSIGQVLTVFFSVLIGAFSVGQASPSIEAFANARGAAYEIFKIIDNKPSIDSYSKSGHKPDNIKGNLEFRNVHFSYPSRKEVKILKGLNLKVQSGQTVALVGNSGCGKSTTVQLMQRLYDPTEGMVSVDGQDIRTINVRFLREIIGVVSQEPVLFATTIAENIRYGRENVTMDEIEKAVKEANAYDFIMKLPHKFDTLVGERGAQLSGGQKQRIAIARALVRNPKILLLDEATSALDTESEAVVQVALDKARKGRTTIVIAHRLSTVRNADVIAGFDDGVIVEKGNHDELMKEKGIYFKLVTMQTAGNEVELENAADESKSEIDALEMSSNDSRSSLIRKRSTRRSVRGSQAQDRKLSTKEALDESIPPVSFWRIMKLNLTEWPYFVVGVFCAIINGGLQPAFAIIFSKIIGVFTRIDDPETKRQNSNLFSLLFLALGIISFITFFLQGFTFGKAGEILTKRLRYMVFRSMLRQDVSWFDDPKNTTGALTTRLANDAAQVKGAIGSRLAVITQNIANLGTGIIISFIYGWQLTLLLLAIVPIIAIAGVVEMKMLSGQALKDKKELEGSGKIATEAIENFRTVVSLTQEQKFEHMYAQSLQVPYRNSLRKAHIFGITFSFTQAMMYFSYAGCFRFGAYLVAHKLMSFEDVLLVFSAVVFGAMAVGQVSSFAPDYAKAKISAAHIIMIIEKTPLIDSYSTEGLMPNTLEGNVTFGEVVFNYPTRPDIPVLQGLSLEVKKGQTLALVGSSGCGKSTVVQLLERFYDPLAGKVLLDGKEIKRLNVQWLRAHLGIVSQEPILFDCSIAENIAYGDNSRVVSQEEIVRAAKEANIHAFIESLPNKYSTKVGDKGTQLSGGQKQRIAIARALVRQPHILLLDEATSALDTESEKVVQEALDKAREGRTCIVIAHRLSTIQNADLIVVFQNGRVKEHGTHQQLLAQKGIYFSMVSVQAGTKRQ
The next series deals with Cytochrome P450 2D6 (Homo sapiens, UniProt P10635). The series is described as follows: Inhibition of CYP2D6 (unknown origin) using Bufuralol as substrate. Type of series: ADME.
Chain of Cytochrome P450 2D6 (P10635 whole entry): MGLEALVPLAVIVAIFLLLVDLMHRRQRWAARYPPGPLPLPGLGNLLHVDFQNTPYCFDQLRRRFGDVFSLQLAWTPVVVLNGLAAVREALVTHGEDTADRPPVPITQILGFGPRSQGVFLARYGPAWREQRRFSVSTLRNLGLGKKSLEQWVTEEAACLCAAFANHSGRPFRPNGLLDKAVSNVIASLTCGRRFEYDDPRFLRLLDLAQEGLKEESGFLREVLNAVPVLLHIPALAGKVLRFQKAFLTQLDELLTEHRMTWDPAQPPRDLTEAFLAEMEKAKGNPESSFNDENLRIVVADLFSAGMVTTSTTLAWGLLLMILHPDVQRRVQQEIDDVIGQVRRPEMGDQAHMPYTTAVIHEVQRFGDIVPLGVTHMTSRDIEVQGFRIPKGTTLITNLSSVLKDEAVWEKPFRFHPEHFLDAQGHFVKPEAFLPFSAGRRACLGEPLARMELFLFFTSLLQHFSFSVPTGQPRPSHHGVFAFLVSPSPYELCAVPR
The nature of series [2]: Metabolic stability in mouse liver microsome assessed as intrinsic clearance. The note with it: microsomes. It counts as ADME. Background: Liver microsomes are a subcellular fraction often used to study metabolism.
The nature of series [3]: Metabolic stability in rat liver microsome assessed as half life. Type of series: ADME. The settings on record: liver microsomes.
Series [4] is described as follows: Inhibition of CYP3A4 in rat liver using luciferin-IPA as substrate microsome preincubated with compound for 10 mins followed by NADPH addition and measured after 5 mins. It counts as ADME, microsomes.
The nature of series [5]: Apparent permeability across basolateral to apical side in human Caco-2 cells assessed as drug recovery. It counts as ADME, cell-based. The settings on record: read-out: Drug recovery.
The target in the next series is Cytochrome P450 3A4 (Homo sapiens, UniProt P08684). Briefly: Inhibition of CYP3A4 in human liver using luciferin-IPA as substrate microsome preincubated with compound for 10 mins followed by NADPH addition and measured after 5 mins. Type of series: ADME, microsomes.
Chain of Cytochrome P450 3A4 (P08684 whole entry): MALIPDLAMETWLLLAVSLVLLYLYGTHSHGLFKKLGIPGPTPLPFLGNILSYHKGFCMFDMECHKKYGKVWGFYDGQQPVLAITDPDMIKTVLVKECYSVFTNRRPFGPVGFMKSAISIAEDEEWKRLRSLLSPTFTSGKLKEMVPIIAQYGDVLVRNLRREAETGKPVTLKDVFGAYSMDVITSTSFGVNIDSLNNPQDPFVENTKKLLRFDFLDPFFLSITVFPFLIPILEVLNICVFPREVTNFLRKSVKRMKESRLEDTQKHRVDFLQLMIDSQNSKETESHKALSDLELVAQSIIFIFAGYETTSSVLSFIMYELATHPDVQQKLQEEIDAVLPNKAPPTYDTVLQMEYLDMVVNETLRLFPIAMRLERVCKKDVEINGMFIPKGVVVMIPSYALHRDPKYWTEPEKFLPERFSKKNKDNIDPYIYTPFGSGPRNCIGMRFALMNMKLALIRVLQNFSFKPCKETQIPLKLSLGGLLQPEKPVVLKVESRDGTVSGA
Series [6] in a line: C0 in CD-1 mouse at 5 mg/kg, iv measured upto 8 hrs by LC-MS/MS analysis. It counts as ADME, organism-based. The note with it: in vivo.
Series [7] in a line: Metabolic stability in human liver microsome assessed as half life. Type of series: ADME. The settings on record: liver microsomes.
The target in series [8] is T2, Broad substrate specificity ATP-binding cassette transporter ABCG2 (Homo sapiens, UniProt Q9UNQ0).
T2 sequence (Q9UNQ0 whole entry): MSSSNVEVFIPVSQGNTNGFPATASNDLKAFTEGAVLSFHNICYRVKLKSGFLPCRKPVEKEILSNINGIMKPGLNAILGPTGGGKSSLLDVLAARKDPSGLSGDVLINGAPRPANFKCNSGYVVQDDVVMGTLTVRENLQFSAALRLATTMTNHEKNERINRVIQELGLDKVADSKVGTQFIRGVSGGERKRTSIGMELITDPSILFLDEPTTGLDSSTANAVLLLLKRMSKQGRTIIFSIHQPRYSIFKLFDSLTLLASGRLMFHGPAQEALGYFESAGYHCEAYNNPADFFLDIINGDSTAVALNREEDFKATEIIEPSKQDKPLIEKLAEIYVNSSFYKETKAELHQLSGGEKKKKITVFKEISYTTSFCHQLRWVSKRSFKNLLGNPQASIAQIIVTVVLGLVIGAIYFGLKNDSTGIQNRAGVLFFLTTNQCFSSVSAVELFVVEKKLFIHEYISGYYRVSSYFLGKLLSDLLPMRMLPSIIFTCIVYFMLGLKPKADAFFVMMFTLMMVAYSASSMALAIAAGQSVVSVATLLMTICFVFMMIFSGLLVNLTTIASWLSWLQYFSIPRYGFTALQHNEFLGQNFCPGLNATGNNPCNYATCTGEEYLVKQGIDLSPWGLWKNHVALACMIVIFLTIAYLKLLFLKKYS
Briefly: Inhibition of BCRP (unknown origin) ATPase activity.

The nature of series [9]: Apparent permeability of compound across apical to basolateral side in human Caco-2 cells. It counts as ADME, cell-based. Background: Caco-2 cells form a polarised layer with tight junctions and transporters.
In series [10] the target is T1, P-gp (ABCB1). The series is described as follows: Inhibition of P-gp in human Caco-2 cells at 0.01 uM in presence of paclitaxel relative to control. Type of series: cell-based. The settings on record: Caco-2, probe paclitaxel.
The subject of another series is MES-SA/Dx5. The series is described as follows: Cytotoxicity against human MES-SA/Dx5 cells at 1.28 uM incubated for 3 days by MTT assay relative to control. It counts as functional. The note with it: time 3 day. (Tetrazolium assays rely on reduction of a dye to a coloured formazan, in cell work by metabolically active cells.)
A short description of series [11]: Metabolic stability in monkey liver microsome assessed as intrinsic clearance. Type of series: ADME, Macaca mulatta. The settings on record: rhesus monkey, microsomes.
Series [12] can be described thus: Inhibition of CYP3A4 in monkey liver using luciferin-IPA as substrate microsome preincubated with compound for 10 mins followed by NADPH addition and measured after 5 mins. Type of series: ADME, microsomes, Macaca mulatta.
Series [13] can be described thus: Equilibrium solubility of compound in PBS at pH 7.4. Type of series: physicochemical. The settings on record: PBS.
The target of series [14] is ATP-dependent translocase ABCB1 (Homo sapiens, UniProt P08183). The series is described as follows: Inhibition of P-gp in human MES-SA/Dx5 cells. It counts as cell-based.
Chain of ATP-dependent translocase ABCB1 (P08183 whole entry): as the sequence (P08183 whole entry) above

≈ marks a conversion by molar mass, not a printed value. Some results are limits rather than exact numbers.

Consider `COc1cc(NC(=O)c2cc(=O)c3ccccc3o2)c(C(=O)Nc2ccc(C3CCN(Cc4cccc(-n5ccnc5)c4)CC3)cc2)cc1OC`, for which the inhibition at 5 µM on P-gp (ABCB1) [1] is 99%. Further, the IC50 is 69 µM against Cytochrome P450 2D6; 0.296 µM in series [4]; 0.223 µM at Cytochrome P450 3A4; > 1.25 µM in series [8]; 0.14 µM in series [12]. The CLH in series [2] came out at 38 µL/min/mg; in [11], 280 µL/min/mg. The half-life was determined as 15 min in [3] and 4.4 min in series [7]. For the same molecule, the recovery in [5] came out at 82%. The molecule further registered a C0 at 8 h in [6] of 6.54 µg/mL. Also, the Papp A→B in series [9] was < 0.6 nm/s. Further, the inhibition at 0.01 µM at P-gp (ABCB1) [10] turned out to be 54%. The molecule further registered an Activity with MES-SA/Dx5 of 0%. In [13], this molecule showed a solubility (thermodynamic) of 0.57 µM (≈ 0.39 µg/mL). The molecule further registered an EC50 in series [14] of 0.028 µM.

A word on the inhibition: it is the change of the read-out against control, counted positive when it falls. For orientation: IC50 means the midpoint of a concentration-inhibition curve. The term half-life denotes how long it takes for the measured level to halve. One may read the Papp A→B as how fast a substance crosses the layer from the apical side. As usually defined, the solubility (thermodynamic) is solubility found after equilibrating the solid with the medium. The EC50 is the midpoint of the concentration-response curve.
